Blank lines part the entries; values can stand above or below the compound they belong to. The source made the active and inactive calls. No cut-off for these calls is given here.
Experiments:
K562 [1] = assay: Antiproliferative activity against human K562 cells assessed as inhibition of cell viability incubated for 72 hrs by real time live-cell imaging technique; assay type: functional, cell-based; details: K562, 72 h
K562 [2] = assay: Induction of apoptosis in human K562 cells assessed as increase in apoptotic cells at 10 uM incubated for 48 hrs by Caspase-3/7 reagent-based fluorescence assay; assay type: functional, cell-based
K562 [3] = assay: Inhibition of PI3K/Akt signaling in human K562 cells assessed as reduction in GSK3alpha/beta phosphorylation at S21/S9 residues up to 10 uM incubated for 48 hrs by human phospho-kinase array; assay type: cell-based
K562 [4] = assay: Inhibition of MAPK signalling in human K562 cells assessed as effect on p38 phosphorylation up to 10 uM incubated for 48 hrs by human phospho-kinase array; assay type: cell-based
K562 [5] = assay: Inhibition of MAPK signalling in human K562 cells assessed as effect on JNK phosphorylation up to 10 uM incubated for 48 hrs by human phospho-kinase array; assay type: cell-based
[6] = target: Protein-tyrosine kinase 2-beta (Homo sapiens) (UniProt Q14289); assay: Inhibition of PYK2 phosphorylation in human K562 cells up to 10 uM incubated for 48 hrs by human phospho-kinase array; assay type: cell-based
Chain of Protein-tyrosine kinase 2-beta (Homo sapiens) (Q14289 whole entry, looked up): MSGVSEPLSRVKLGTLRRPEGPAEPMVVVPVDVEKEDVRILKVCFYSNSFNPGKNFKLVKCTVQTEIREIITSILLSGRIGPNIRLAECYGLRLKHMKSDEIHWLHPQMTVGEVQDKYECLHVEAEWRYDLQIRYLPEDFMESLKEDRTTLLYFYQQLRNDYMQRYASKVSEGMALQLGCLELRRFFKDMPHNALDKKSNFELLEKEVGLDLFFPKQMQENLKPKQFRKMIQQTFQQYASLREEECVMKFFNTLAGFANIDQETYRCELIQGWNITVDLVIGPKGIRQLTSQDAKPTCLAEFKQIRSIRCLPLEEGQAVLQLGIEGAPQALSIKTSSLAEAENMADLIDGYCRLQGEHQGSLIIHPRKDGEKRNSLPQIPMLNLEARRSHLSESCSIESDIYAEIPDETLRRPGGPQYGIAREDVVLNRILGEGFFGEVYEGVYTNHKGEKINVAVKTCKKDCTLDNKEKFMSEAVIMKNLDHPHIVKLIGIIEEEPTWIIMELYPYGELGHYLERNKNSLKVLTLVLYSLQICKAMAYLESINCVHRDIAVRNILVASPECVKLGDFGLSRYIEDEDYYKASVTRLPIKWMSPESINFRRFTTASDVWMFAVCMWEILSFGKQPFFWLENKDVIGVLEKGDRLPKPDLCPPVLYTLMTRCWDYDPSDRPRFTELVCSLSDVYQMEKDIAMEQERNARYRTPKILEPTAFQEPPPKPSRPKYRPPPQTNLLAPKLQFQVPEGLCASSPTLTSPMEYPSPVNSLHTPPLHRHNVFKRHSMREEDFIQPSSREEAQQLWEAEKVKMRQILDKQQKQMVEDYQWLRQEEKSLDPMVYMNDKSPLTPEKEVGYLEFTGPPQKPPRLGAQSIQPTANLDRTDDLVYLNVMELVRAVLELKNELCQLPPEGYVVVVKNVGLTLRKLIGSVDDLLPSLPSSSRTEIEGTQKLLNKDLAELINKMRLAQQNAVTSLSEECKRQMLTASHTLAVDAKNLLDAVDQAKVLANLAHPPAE

K562 [7] = assay: Inhibition of RAF/MEK/ERK signalling n human K562 cells assessed as reduction in RSK1/2/3 phosphorylation at S380/S386/S377 residues up to 10 uM incubated for 48 hrs by human phospho-kinase array; assay type: cell-based
K562 [8] = assay: Inhibition of MAPK signalling in human K562 cells assessed as effect on HSP27 phosphorylation up to 10 uM incubated for 48 hrs by human phospho-kinase array; assay type: cell-based
K562 [9] = assay: Inhibition of RAF/MEK/ERK signalling n human K562 cells assessed as reduction in ERK1/2 phosphorylation at T202/Y204, T185/Y187 residues up to 10 uM incubated for 48 hrs by human phospho-kinase array; assay type: cell-based
K562 [10] = assay: Induction of apoptosis in human K562 cells assessed as increase in apoptotic cells at 10 uM incubated for 24 to 48 hrs by Caspase-3/7 reagent-based fluorescence assay; assay type: functional, cell-based
[11] = target: Serine/threonine-protein kinase WNK1 (Homo sapiens) (UniProt Q9H4A3); assay: Inhibition of WNK1 phosphorylation at T60 residue in human K562 cells up to 10 uM incubated for 48 hrs by human phospho-kinase array; assay type: cell-based
[12] = target: Proline-rich AKT1 substrate 1 (Homo sapiens) (UniProt Q96B36); assay: Inhibition of PRAS40 phosphorylation at T246 residue in human K562 cells up to 10 uM incubated for 48 hrs by human phospho-kinase array; assay type: cell-based
[13] = target: Serine/threonine-protein kinase AKT (Homo sapiens) (UniProt P31751+Q9Y243+P31749); assay: Inhibition of AKT1/2/3 phosphorylation (S473/T308 residues) in human K562 cells up to 10 uM incubated for 48 hrs by human phospho-kinase array; assay type: cell-based
Chain of Serine/threonine-protein kinase AKT (Homo sapiens) (P31749 whole entry, looked up): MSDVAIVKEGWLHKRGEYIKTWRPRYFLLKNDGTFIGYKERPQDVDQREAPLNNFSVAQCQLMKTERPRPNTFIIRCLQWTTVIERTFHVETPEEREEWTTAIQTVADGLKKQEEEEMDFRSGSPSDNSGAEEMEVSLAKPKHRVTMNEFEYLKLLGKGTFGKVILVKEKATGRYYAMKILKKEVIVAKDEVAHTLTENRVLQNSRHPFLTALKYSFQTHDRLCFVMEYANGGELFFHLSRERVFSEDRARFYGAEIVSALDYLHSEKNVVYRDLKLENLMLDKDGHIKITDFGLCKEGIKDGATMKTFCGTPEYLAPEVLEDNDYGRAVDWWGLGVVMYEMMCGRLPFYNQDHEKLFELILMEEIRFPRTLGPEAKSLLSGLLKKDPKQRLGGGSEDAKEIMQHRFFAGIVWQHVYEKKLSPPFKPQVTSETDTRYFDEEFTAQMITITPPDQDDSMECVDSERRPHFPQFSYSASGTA
Chain of Serine/threonine-protein kinase AKT (Homo sapiens) (P31751 whole entry, looked up): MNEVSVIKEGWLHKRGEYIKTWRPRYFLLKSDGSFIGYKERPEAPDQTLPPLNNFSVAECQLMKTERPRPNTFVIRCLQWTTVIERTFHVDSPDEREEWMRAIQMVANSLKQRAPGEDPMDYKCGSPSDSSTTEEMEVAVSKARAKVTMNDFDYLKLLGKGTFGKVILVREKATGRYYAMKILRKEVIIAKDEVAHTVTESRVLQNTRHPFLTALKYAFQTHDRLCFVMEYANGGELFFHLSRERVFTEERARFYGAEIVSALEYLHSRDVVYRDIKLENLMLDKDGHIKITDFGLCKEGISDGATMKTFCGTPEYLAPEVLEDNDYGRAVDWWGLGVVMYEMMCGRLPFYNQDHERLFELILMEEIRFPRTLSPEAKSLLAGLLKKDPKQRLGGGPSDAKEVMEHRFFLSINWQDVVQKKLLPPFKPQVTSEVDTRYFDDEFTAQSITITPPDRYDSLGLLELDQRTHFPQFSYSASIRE
Chain of Serine/threonine-protein kinase AKT (Homo sapiens) (Q9Y243 whole entry, looked up): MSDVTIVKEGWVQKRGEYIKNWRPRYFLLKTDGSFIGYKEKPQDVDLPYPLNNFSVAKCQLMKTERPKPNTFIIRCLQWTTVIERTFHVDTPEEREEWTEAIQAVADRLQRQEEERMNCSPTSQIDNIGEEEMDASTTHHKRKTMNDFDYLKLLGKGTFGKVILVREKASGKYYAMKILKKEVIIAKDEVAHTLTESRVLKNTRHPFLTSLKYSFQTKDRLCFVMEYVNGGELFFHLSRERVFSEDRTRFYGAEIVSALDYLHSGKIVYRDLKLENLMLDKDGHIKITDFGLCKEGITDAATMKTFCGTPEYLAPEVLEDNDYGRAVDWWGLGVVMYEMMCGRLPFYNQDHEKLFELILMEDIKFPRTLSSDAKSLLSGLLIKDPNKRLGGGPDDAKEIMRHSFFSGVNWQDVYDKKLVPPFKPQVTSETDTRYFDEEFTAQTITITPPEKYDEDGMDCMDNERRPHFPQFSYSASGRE

[14] = target: Tyrosine-protein kinase Lck (Homo sapiens) (UniProt P06239); assay: Inhibition of LCK phosphorylation in human K562 cells up to 10 uM incubated for 48 hrs by human phospho-kinase array; assay type: cell-based
Chain of Tyrosine-protein kinase Lck (Homo sapiens) (P06239 2-509 limits assumed): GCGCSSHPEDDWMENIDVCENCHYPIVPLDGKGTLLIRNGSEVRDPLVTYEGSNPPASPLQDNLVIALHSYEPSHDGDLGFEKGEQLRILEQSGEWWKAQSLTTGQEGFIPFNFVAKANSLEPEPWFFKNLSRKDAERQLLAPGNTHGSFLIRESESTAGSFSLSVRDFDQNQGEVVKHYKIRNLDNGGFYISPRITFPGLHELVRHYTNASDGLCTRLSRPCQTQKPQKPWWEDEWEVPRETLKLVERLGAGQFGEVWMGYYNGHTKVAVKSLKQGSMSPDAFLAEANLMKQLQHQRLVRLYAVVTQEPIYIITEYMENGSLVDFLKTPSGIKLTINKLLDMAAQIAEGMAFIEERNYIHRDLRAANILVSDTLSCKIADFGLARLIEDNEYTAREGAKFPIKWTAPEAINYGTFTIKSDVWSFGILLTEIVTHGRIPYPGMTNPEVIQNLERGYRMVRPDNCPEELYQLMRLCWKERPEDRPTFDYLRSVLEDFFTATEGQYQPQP

[15] = target: Cellular tumor antigen p53 (Homo sapiens) (UniProt P04637); assay: Induction of p53 phosphorylation at S392, S46, S15 residues in human K562 cells up to 10 uM incubated for 48 hrs by human phospho-kinase array; assay type: cell-based
Chain of Cellular tumor antigen p53 (Homo sapiens) (P04637 whole entry, looked up): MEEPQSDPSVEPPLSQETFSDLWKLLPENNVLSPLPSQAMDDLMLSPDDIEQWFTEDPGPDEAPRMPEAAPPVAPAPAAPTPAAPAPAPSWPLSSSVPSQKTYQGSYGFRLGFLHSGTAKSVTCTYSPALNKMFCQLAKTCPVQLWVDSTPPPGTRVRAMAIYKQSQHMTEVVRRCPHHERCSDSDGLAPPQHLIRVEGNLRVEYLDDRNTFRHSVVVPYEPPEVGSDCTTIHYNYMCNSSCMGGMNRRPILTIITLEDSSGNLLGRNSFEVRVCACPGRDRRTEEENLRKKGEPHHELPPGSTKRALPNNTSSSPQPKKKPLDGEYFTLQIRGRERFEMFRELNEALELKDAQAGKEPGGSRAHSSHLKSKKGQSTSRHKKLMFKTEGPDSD

[16] = target: Proto-oncogene tyrosine-protein kinase Src (Homo sapiens) (UniProt P12931); assay: Inhibition of SRC phosphorylation in human K562 cells up to 10 uM incubated for 48 hrs by human phospho-kinase array; assay type: cell-based
Chain of Proto-oncogene tyrosine-protein kinase Src (Homo sapiens) (P12931 2-536 limits assumed): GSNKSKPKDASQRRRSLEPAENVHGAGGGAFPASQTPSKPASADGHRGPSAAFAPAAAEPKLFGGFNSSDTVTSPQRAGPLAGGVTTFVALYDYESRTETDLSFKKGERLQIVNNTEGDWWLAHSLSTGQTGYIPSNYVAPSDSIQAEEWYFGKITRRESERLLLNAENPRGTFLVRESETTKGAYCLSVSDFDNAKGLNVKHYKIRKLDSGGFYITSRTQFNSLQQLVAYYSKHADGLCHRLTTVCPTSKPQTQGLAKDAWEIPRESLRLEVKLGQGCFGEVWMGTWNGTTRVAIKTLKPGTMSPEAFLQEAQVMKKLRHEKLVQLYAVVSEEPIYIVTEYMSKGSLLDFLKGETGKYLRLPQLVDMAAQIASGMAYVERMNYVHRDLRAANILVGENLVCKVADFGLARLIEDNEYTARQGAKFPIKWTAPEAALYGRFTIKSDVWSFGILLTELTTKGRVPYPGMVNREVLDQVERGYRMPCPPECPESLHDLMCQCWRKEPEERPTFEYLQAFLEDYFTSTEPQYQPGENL

K562 [17] = assay: Inhibition of STAT signalling in human K562 cells up to 10 uM incubated for 48 hrs by human phospho-kinase array; assay type: cell-based
K562 [18] = assay: Inhibition of PI3K/Akt signaling in human K562 cells assessed as reduction in p70S6K phosphorylation at T421/S424 residues up to 10 uM incubated for 48 hrs by human phospho-kinase array; assay type: cell-based
K562 [19] = assay: Inhibition of PI3K/Akt signaling in human K562 cells assessed as reduction in mTOR phosphorylation at S2448 residues up to 10 uM incubated for 48 hrs by human phospho-kinase array; assay type: cell-based
[20] = target: Cyclin-dependent kinase inhibitor 1B (Homo sapiens) (UniProt P46527); assay: Induction of p27 phosphorylation at T198 residues in human K562 cells up to 10 uM incubated for 48 hrs by human phospho-kinase array; assay type: cell-based
Chain of Cyclin-dependent kinase inhibitor 1B (Homo sapiens) (P46527 whole entry): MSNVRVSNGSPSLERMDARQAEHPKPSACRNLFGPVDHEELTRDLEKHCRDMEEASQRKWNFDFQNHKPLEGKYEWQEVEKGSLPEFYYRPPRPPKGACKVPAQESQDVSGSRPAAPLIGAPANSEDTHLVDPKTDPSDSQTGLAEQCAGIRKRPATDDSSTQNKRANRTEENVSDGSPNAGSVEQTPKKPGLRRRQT

Structure (SMILES): COc1cccc(NC(=O)Nc2nnc(Sc3cc(NCCCN4CCOCC4)ncn3)s2)c1
IC50 (K562 [1]): 690 nM

Structure (SMILES): CCN(CC)CCCNc1cc(Sc2nnc(NC(=O)Nc3ccc(Cl)c(C(F)(F)F)c3)s2)ncn1
IC50 (K562 [1]): 280 nM

Structure (SMILES): Cc1ccc(NC(=O)Nc2nnc(Sc3cc(NCCCN4CCOCC4)ncn3)s2)cc1
IC50 (K562 [1]): 56 nM

Structure (SMILES): Cc1ccc(NC(=O)Nc2nnc(Sc3cc(NCCCN4CCOCC4)ncn3)s2)cc1Cl
IC50 (K562 [1]): 35 nM

Structure (SMILES): CCN(CC)CCCNc1cc(Sc2nnc(NC(=O)Nc3ccc(C)cc3)s2)ncn1
IC50 (K562 [1]): 14 nM

Structure (SMILES): Cc1ccc(NC(=O)c2ccc(CN3CCN(C)CC3)cc2)cc1Nc1nccc(-c2cccnc2)n1 [IMATINIB]
Activity (K562 [2]): Active
IC50 (K562 [1]): 140 nM

Structure (SMILES): O=C(Nc1ccc(Cl)cc1)Nc1nnc(Sc2cc(NCCCN3CCOCC3)ncn2)s1
IC50 (K562 [1]): 110 nM

Further lines, with some results ahead:

IC50 (K562 [1]): 150 nM
Structure (SMILES): O=C(Nc1ccc(Cl)c(C(F)(F)F)c1)Nc1nnc(Sc2cc(OCCCN3CCOCC3)ncn2)s1

IC50 (K562 [1]): 78 nM
Structure (SMILES): Cc1ccc(NC(=O)Nc2nnc(Sc3cc(OCCCN4CCOCC4)ncn3)s2)cc1

inhibition [6]: Active
inhibition [11]: Active
inhibition [12]: Active
inhibition [13]: Active
inhibition [14]: Active
Activity [15]: Active
inhibition [16]: Active
IC50 (K562 [1]): 38 nM
Activity [20]: Active
Structure (SMILES): O=C(Nc1ccc(C(F)(F)F)cc1)Nc1nnc(Sc2cc(NCCCN3CCOCC3)ncn2)s1
inhibition (K562 [3]): Active
inhibition (K562 [4]): Active
inhibition (K562 [5]): Active
inhibition (K562 [7]): Active
inhibition (K562 [8]): Active
inhibition (K562 [9]): Active
Activity (K562 [10]): Active
inhibition (K562 [17]): Active
inhibition (K562 [18]): Active
inhibition (K562 [19]): Active

IC50 (K562 [1]): 120 nM
Structure (SMILES): O=C(Nc1ccc(Cl)c(C(F)(F)F)c1)Nc1nnc(Sc2cc(NCCCN3CCOCC3)ncn2)s1
